Laboratory results published in PubChem BioAssay AID330 (DTP/NCI, 2004).
Where “and” joins values, the source holds several entries; their conditions need not be identical. Equal values may be shown once. Inconclusive results and toxic doses are left out. Rule for the calls: active = survival T/C of 150% or more; inactive = T/C below 125% in these data.

Test system: P388 leukemia ip, CD2F1 mice, survival T/C
Experiment: NCI In Vivo Anticancer Drug Screen. Data for tumor model P388 Leukemia (intraperitoneal) in CD2F1 (CDF1) mice
Settings: endpoint: median survival time, higher = longer survival
Method in brief: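 Mice carrying the transplanted tumor received test compound or vehicle. Survival was recorded in each group, and the value is the treated-group measurement divided by that of the vehicle-treated control group.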

[1] = dose: 50.0 mg/kg/injection, schedule: Q01DX005 (ip), vehicle: Klucel (hydroxypropylcellulose) (HPC)
[2] = dose: 100.0 mg/kg/injection, schedule: Q01DX005 (ip), vehicle: Klucel (hydroxypropylcellulose) (HPC)
[3] = dose: 200.0 mg/kg/injection, schedule: Q01DX005 (ip), vehicle: Klucel (hydroxypropylcellulose) (HPC)
[4] = dose: 100.0 mg/kg/injection, schedule: Q04DX003 (ip), vehicle: saline with Tween-80
[5] = dose: 60.0 mg/kg/injection, schedule: Q01DX005 (ip), vehicle: Klucel (hydroxypropylcellulose) (HPC)
[6] = dose: 120.0 mg/kg/injection, schedule: Q01DX005 (ip), vehicle: Klucel (hydroxypropylcellulose) (HPC)
[7] = dose: 50.0 mg/kg/injection, schedule: Q01DX009 (ip), vehicle: saline with Tween-80
[8] = dose: 100.0 mg/kg/injection, schedule: Q01DX009 (ip), vehicle: saline with Tween-80
[9] = dose: 50.0 mg/kg/injection, schedule: Q01DX005 (ip), vehicle: saline with Tween-80
[10] = dose: 25.0 mg/kg/injection, schedule: Q01DX009 (ip), vehicle: other
[11] = dose: 50.0 mg/kg/injection, schedule: Q01DX009 (ip), vehicle: other
[12] = dose: 100.0 mg/kg/injection, schedule: Q01DX009 (ip), vehicle: other
[13] = dose: 200.0 mg/kg/injection, schedule: Q01DX009 (ip), vehicle: other
[14] = dose: 100.0 mg/kg/injection, schedule: Q01DX001 (ip), vehicle: saline with Tween-80
[15] = dose: 200.0 mg/kg/injection, schedule: Q01DX001 (ip), vehicle: saline with Tween-80
[16] = dose: 50.0 mg/kg/injection, schedule: Q01DX009 (ip), vehicle: saline
[17] = dose: 100.0 mg/kg/injection, schedule: Q01DX009 (ip), vehicle: saline
[18] = dose: 200.0 mg/kg/injection, schedule: Q01DX009 (ip), vehicle: saline

Measured: T/C

OCCSCc1ccc(F)cc1
inactive: [1] 101 % of control | [2] 97 % of control | [3] 104 % of control

CC1=CC=CC2=NC(=O)CCN12
inactive: [4] 100 % of control | dose: 200.0 mg/kg/injection, schedule: Q04DX003 (ip), vehicle: saline with Tween-80 100 % of control

COc1cccc2c1C(=N)c1c(O)c3c(c(O)c1C2=O)CC(O)(C(=O)CO)CC3OC1CC(N2CCOCC2)C(O)C(C)O1 (stereo not drawn)
inactive: dose: 0.13 mg/kg/injection, schedule: Q04DX003 (ip), vehicle: water 101 % of control and 104 % of control and 98 % of control | dose: 0.25 mg/kg/injection, schedule: Q04DX003 (ip), vehicle: water 101 % of control and 108 % of control and 116 % of control | dose: 0.5 mg/kg/injection, schedule: Q04DX003 (ip), vehicle: water 104 % of control and 107 % of control | dose: 0.78 mg/kg/injection, schedule: Q04DX003 (ip), vehicle: distilled water + Tween-80 105 % of control | dose: 1.0 mg/kg/injection, schedule: Q04DX003 (ip), vehicle: water 99 % of control and 104 % of control and 107 % of control | dose: 1.56 mg/kg/injection, schedule: Q04DX003 (ip), vehicle: distilled water + Tween-80 101 % of control | dose: 3.12 mg/kg/injection, schedule: Q04DX003 (ip), vehicle: distilled water + Tween-80 99 % of control

CN(C)c1ccc(SC(=S)NCc2ccccc2)cc1
inactive: [5] 88 % of control | [6] 88 % of control

Nc1ccc(C(=O)c2ccccc2)cc1
inactive: dose: 25.0 mg/kg/injection, schedule: Q01DX009 (ip), vehicle: saline with Tween-80 93 % of control | [7] 100 % of control | [8] 102 % of control

CC(C)NS(=O)(=O)OCC(O)(CC(Cl)(Cl)Cl)c1ccccc1 (stereo not drawn)
inactive: [7] 105 % of control | [8] 109 % of control and 112 % of control | dose: 200.0 mg/kg/injection, schedule: Q01DX009 (ip), vehicle: saline with Tween-80 105 % of control

O=C1NNC(c2ccccc2)=Nc2ccccc21
inactive: dose: 100.0 mg/kg/injection, schedule: Q04DX002 (ip), vehicle: saline with Tween-80 96 % of control | dose: 200.0 mg/kg/injection, schedule: Q04DX002 (ip), vehicle: saline with Tween-80 96 % of control | dose: 400.0 mg/kg/injection, schedule: Q04DX002 (ip), vehicle: saline with Tween-80 94 % of control

CCc1c(C)sc(=S)n1C(C)C(=O)OC (stereo not drawn)
inactive: [9] 98 % of control | dose: 100.0 mg/kg/injection, schedule: Q01DX005 (ip), vehicle: saline with Tween-80 106 % of control | dose: 200.0 mg/kg/injection, schedule: Q01DX005 (ip), vehicle: saline with Tween-80 107 % of control

NNS(=O)(=O)c1ccc(Cl)cc1
inactive: [10] 117 % of control | [11] 113 % of control | [12] 120 % of control | [13] 120 % of control

COC1OC2COC(c3ccccc3)OC2C(OC(C)=O)C1OC(C)=O (stereo not drawn)
inactive: dose: 12.5 mg/kg/injection, schedule: Q01DX009 (ip), vehicle: other 98 % of control | [10] 99 % of control | [11] 100 % of control | [12] 95 % of control | [13] 100 % of control

O=C(NCCCCOc1ccc([N+](=O)[O-])cc1Cl)NC1CCCCC1
inactive: dose: 50.0 mg/kg/injection, schedule: Q01DX001 (ip), vehicle: saline with Tween-80 90 % of control | [14] 100 % of control | [15] 100 % of control

O=C(CCC(=O)Nc1ccc2[nH]c3ccccc3c(=O)c2c1)Nc1ccc2[nH]c3ccccc3c(=O)c2c1
inactive: [5] 99 % of control | [6] 96 % of control | dose: 240.0 mg/kg/injection, schedule: Q01DX005 (ip), vehicle: Klucel (hydroxypropylcellulose) (HPC) 97 % of control

COCC(O)CN1CCN(c2ccccc2C)CC1 (stereo not drawn)
inactive: dose: 25.0 mg/kg/injection, schedule: Q04DX003 (ip), vehicle: saline with Tween-80 100 % of control | dose: 50.0 mg/kg/injection, schedule: Q04DX003 (ip), vehicle: saline with Tween-80 100 % of control | [4] 90 % of control

OC1CC2CCC(C1)N2c1ccccc1 (stereo not drawn)
inactive: dose: 50.0 mg/kg/injection, schedule: Q01DX005 (ip), vehicle: saline 115 % of control | dose: 100.0 mg/kg/injection, schedule: Q01DX005 (ip), vehicle: saline 97 % of control

NCC(=O)O
inactive: dose: 3.75 mg/kg/injection, schedule: Q01DX005 (ip), vehicle: saline 99 % of control | dose: 7.5 mg/kg/injection, schedule: Q01DX005 (ip), vehicle: saline 100 % of control | dose: 15.0 mg/kg/injection, schedule: Q01DX005 (ip), vehicle: saline 99 % of control and 94 % of control | [16] 94 % of control | [17] 105 % of control | [18] 110 % of control

CC1CN(C(=O)/C=C/C(=O)OC2CCCCC2)C(C)CN1C(=O)/C=C/C(=O)OC1CCCCC1 (stereo not drawn)
inactive: [1] 98 % of control | [2] 94 % of control | [3] 97 % of control

CCC(c1ccc(OC)cc1)C(NCC(=O)NNC(=S)Nc1cccc(C)c1)c1ccc(OC)cc1 (stereo not drawn)
inactive: [14] 90 % of control | [15] 96 % of control

COc1ccc(-n2c(N)c(C#N)c3c(c2=S)CCCC3)cc1
inactive: dose: 50.0 mg/kg/injection, schedule: Q01DX005 (ip), vehicle: Klucel + Tween-80 100 % of control | dose: 100.0 mg/kg/injection, schedule: Q01DX005 (ip), vehicle: Klucel + Tween-80 104 % of control | dose: 200.0 mg/kg/injection, schedule: Q01DX005 (ip), vehicle: Klucel + Tween-80 95 % of control

N=C(N)c1ccc(/C=C/c2ccc(C(=N)N)cc2O)cc1
inactive: dose: 12.5 mg/kg/injection, schedule: Q01DX009 (ip), vehicle: water 111 % of control | dose: 22.0 mg/kg/injection, schedule: Q01DX009 (ip), vehicle: water 120 % of control | dose: 25.0 mg/kg/injection, schedule: Q01DX009 (ip), vehicle: water 120 % of control

NC(=O)c1ncn(C2OC(CO)C(O)C2O)n1 (stereo not drawn)
inactive: dose: 10.0 mg/kg/injection, schedule: Q01DX009 (ip), vehicle: saline 99 % of control and 101 % of control | dose: 20.0 mg/kg/injection, schedule: Q01DX009 (ip), vehicle: saline 104 % of control | dose: 40.0 mg/kg/injection, schedule: Q01DX009 (ip), vehicle: saline 105 % of control and 106 % of control and 109 % of control | dose: 80.0 mg/kg/injection, schedule: Q01DX009 (ip), vehicle: saline 108 % of control and 112 % of control and 118 % of control | dose: 160.0 mg/kg/injection, schedule: Q01DX009 (ip), vehicle: saline 122 % of control | dose: 320.0 mg/kg/injection, schedule: Q01DX009 (ip), vehicle: saline 87 % of control

Cc1c(Cl)cc([N+](=O)[O-])cc1S(=O)(=O)Oc1ccccc1
inactive: dose: 100.0 mg/kg/injection, schedule: Q01DX001 (ip), vehicle: Klucel (hydroxypropylcellulose) (HPC) 103 % of control | dose: 200.0 mg/kg/injection, schedule: Q01DX001 (ip), vehicle: Klucel (hydroxypropylcellulose) (HPC) 108 % of control | dose: 400.0 mg/kg/injection, schedule: Q01DX001 (ip), vehicle: Klucel (hydroxypropylcellulose) (HPC) 100 % of control

CS(=O)(=O)NC(=O)NC(=S)c1ccco1
inactive: [14] 105 % of control | [15] 102 % of control | dose: 400.0 mg/kg/injection, schedule: Q01DX001 (ip), vehicle: saline with Tween-80 97 % of control

COc1ccc2c(C)c(N=C=S)c(=O)oc2c1
inactive: dose: 50.0 mg/kg/injection, schedule: Q04DX003 (ip), vehicle: suspension in saline 100 % of control | dose: 100.0 mg/kg/injection, schedule: Q04DX003 (ip), vehicle: suspension in saline 100 % of control | dose: 200.0 mg/kg/injection, schedule: Q04DX003 (ip), vehicle: suspension in saline 106 % of control

CC(C)c1nnc2cc3oc4ccccc4c3cc2c1N
inactive: dose: 6.25 mg/kg/injection, schedule: Q01DX005 (ip), vehicle: saline with Tween-80 100 % of control | dose: 12.5 mg/kg/injection, schedule: Q01DX005 (ip), vehicle: saline with Tween-80 96 % of control | dose: 25.0 mg/kg/injection, schedule: Q01DX005 (ip), vehicle: saline with Tween-80 106 % of control | [9] 106 % of control

Nc1nc(N)nc(N(CCO)CCO)n1
inactive: [1] 111 % of control | [2] 102 % of control | [3] 106 % of control

C(=C=C(c1ccccc1)c1ccccc1)=C(c1ccccc1)c1ccccc1
inactive: [16] 101 % of control | [17] 93 % of control | [18] 92 % of control
